Assay results published in ChEMBL document CHEMBL1201862, “PubChem BioAssay data set” (2004).
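Cultured in 96-well plates, cells were exposed to test compound for 48 hours across five concentrations. GI50 = concentration required for 50% inhibition of growth.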 Calls of active or inactive are those of the source. No stated cut-off is given here; in the data, active = GI50 up to about 1.1 µM and inactive = higher.

Columns and labels:
Experiment in all cases: NCI anticancer screen, dose series, 48 h
BT-549 = system: BT-549
DU-145 = system: DU-145
HCT-116 = system: HCT-116
HCT-15 = system: HCT-15
HL-60 = system: HL-60
M14 = system: M14
MDA-MB-231 = system: MDA-MB-231
Malme-3M = system: Malme-3M
NCI-H460 = system: NCI-H460
PC-3 = system: PC-3
RPMI-8226 = system: RPMI-8226
SF-268 = system: SF-268
SF-295 = system: SF-295
SF-539 = system: SF-539
SK-MEL-28 = system: SK-MEL-28
SK-MEL-2 = system: SK-MEL-2
SK-OV-3 = system: SK-OV-3
SNB-75 = system: SNB-75
SR = system: SR
U-251 = system: U-251

Row | Compound | GI50 (BT-549) | GI50 (DU-145) | GI50 (HCT-116) | GI50 (HCT-15) | GI50 (HL-60) | GI50 (M14) | GI50 (MDA-MB-231) | GI50 (Malme-3M) | GI50 (NCI-H460) | GI50 (PC-3) | GI50 (RPMI-8226) | GI50 (SF-268) | GI50 (SF-295) | GI50 (SF-539) | GI50 (SK-MEL-28) | GI50 (SK-MEL-2) | GI50 (SK-OV-3) | GI50 (SNB-75) | GI50 (SR) | GI50 (U-251)
1 | O=C1C=CC(=O)C1(Br)Br | 11.3 µM (inactive) | 16 µM (inactive) | 7.69 µM (inactive) | 6.53 µM | 11.4 µM (inactive) | 18.1 µM (inactive) | 8.22 µM (inactive) | 20 µM (inactive) | 19.3 µM (inactive) | 14.6 µM (inactive) | 6.64 µM (inactive) | 18.5 µM (inactive) | 17.2 µM (inactive) | 16.4 µM (inactive) | 7.24 µM (inactive) | 12.5 µM (inactive) | 21 µM (inactive) | 12 µM (inactive) | 3.42 µM (inactive) | 12.3 µM (inactive)
2 | CS(=O)(=O)OCCCCOS(C)(=O)=O [BUSULFAN] | > 1000 µM (inactive) | 220 µM (inactive) | 238 µM (inactive) | 219 µM | 125 µM (inactive) | 236 µM (inactive) | > 1000 µM (inactive) | 242 µM (inactive) | 95.9 µM (inactive) | 235 µM (inactive) | 237 µM (inactive) | 179 µM (inactive) | 210 µM (inactive) | 233 µM (inactive) | 203 µM (inactive) | 248 µM (inactive) | > 237 µM (inactive) | 144 µM (inactive) | 87.9 µM (inactive) | 234 µM (inactive)
3 | CC(=O)O[C@H]1CC[C@]2(C=O)[C@H]3CC[C@]4(C)[C@@H](C5=CC(=O)OC5)CC[C@]4(O)[C@@H]3CC[C@]2(O)C1 [STROPHANTHIDIN ACETATE] | 0.144 µM (active) | 0.164 µM (active) | 0.11 µM (active) | 0.203 µM | 0.344 µM (active) | 0.416 µM (active) | 0.769 µM (active) | 0.231 µM (active) | 0.0578 µM (active) | 0.264 µM (active) | 0.313 µM (active) | 0.171 µM (active) | 0.175 µM (active) | 0.13 µM (active) | 0.774 µM (active) | 0.324 µM (active) | 0.222 µM (active) | 0.601 µM (active) | 0.528 µM (active) | 0.296 µM (active)
